# Source: patent US20180353457A1, “ABIETANE DITERPENOID 7-ACETOXYROYLEANONES FOR USE IN CANCER TREATMENT” (University of South Carolina, priority 2017, published 2018)
# Like-named read-outs stand apart in the source and are kept apart here.
# Tests used:
# leukemia cell lines [1] = assay: NCI-60 one dose screen, leukemia cell lines; assay type: cell-based; conditions: 10 μM, each leukemia cell line
# Protocol: One dose and five dose cytotoxicity screening was performed by the NCI-60 screening program of the National Institutes of Health (NIH), which is known in the art and available from the NIH. The NCI-60 panel is a collection of cancer cell lines, from various diverse tumors, which was developed in the 1980s by the National Cancer Institute to aid screening efforts for cytotoxic or cytostatic compounds.
# In these screens, 60 cell lines, were utilized to determine the cytotoxic effect of small molecules, natural products, and other drug candidates. […]
# The five dose screen was performed by creating four 10-fold dilutions of the highest concentration of the diluted 7-acetoxyroyleanone made in the same manner as the one dose screen. […] The bound stain was then dissolved in 10 mM trizma base and the absorbance was read using an automated plate reader at 515 nm. […]
# [2] = tested on: NCI-60 panel of cancer cell lines; conditions: for GI50: across all 60 cell lines
# leukemia cell lines [3] = conditions: read-out: LC50; each leukemia cell line; not reached at highest concentration tested
# [4] = tested on: SK-MEL-5 (melanoma) cells
# [5] = read-out: LC50; melanoma cell line SK-OV-3 (so in the source), most sensitive to cell death
# [6] = tested on: SF-295 (CNS cancer) cells; assay: NCI-60 five dose screen, SF-295; conditions: read-out: LC50; SF-295, CNS
# [7] = tested on: HOP-92 (non-small cell lung cancer) cells; assay: NCI-60 five dose screen, HOP-92; conditions: read-out: LC50; HOP-92, Non-small Cell Lung Cancer
# [8] = tested on: OVCAR-3 (ovarian cancer) cells; assay: NCI-60 five dose screen, OVCAR-3; conditions: read-out: LC50; OVCAR-3, Ovarian
# [9] = tested on: RXF 393 (renal cancer) cells; assay: NCI-60 five dose screen, RXF 393; conditions: read-out: LC50; RXF 393, Renal
# [10] = tested on: COLO 205 (colon cancer) cells; assay: NCI-60 five dose screen, COLO 205; conditions: read-out: LC50; COLO 205, Colon
# [11] = tested on: NCI-H522 (non-small cell lung cancer) cells; assay: NCI-60 five dose screen, NCI-H522; conditions: read-out: LC50; NCI-H522, Non-small Cell Lung Cancer
# [12] = tested on: MDA-MB-468 (breast cancer) cells; assay: NCI-60 five dose screen, MDA-MB-468; conditions: read-out: LC50; MDA-MB-468, Breast
structure (smiles),measurement,setting,value
CC(=O)O[C@@H]1C[C@H]2C(C)(C)CCC[C@]2(C)C2=C1C(=O)C(C(C)C)=C(O)C2=O [7-acetoxyroyleanone],cell death versus growth inhibition,leukemia cell lines [1],"did not appear to induce cell death, but rather growth inhibition"
same,CC50,[2],11.5 µM
same,average TGI concentration,[2]; across the 50 cell lines with TGI within the range tested,6.69 µM
same,GI50,"[2]; read-out: average GI50 concentration, five dose screen",1.27 µM
same,GI50,[2]; read-out: range of the GI50 concentrations,2.86 µM
same,CC50,leukemia cell lines [3],> 100 µM
same,CC50,[4],4.34 µM
same,CC50,[5],4.34 µM
same,CC50,[6],7.37 µM
same,CC50,[7],5.4 µM
same,CC50,[8],7.46 µM
same,CC50,[9],5.87 µM
same,CC50,[10],6.3 µM
same,CC50,[11],9.02 µM
same,CC50,[12],9.46 µM
